Laboratory results as given in paper PMC4877006, “From Binding-Induced Dynamic Effects in SH3 Structures to Evolutionary Conserved Sectors” (PLoS Computational Biology, 2016).

Legend:
Design in all cases: species or system chicken
c-Src L32V (SH3 domain) = biological target: T1, c-Src L32V (SH3 domain) (Gallus gallus, UniProt P00523, L100V/Q128R); assay: Fluorescence titration binding of peptide RLP2 to c-Src SH3 L32V; settings: fluorescence titration only, 25 °C
T1 construct: The plasmid pET15b containing the chicken c-Src-SH3 domain gene; made in house
Text: (§1) The plasmid pET15b containing the chicken c-Src-SH3 domain gene was a generous gift from Dr. E. Freire (Johns Hopkins University). The genes encoding for the c-Src-SH3 mutants were obtained by site directed mutagenesis using the QuickChange Site-Directed-Mutagenesis Kit (Stratagene) taking the WT c-Src-SH3 plasmid as template or purchased from Top Gene Technologies, Canada. WT and mutants of c-Src-SH3 domain were expressed and purified as previously described for the wild type protein [68]. The peptide RLP2 (Ac-RALPPLPRY-NH2) was bought from Peptide 2.0 (Piscataway, USA) and JPT (Berlin, Germany) with a purity > 95%. Protein concentration was determined by absorbance at 280 nm using an extinction coefficient of 16500 M^-1·cm^-1. Peptide concentration was determined by absorbance at 274 nm using an extinction coefficient of 1400 M^-1·cm^-1.
(§2) Supplementary file pcbi.1004938.s008.doc: S3 Table Analysis of Src SH3 binding affinities through ITC. Thermodynamic binding affinity to peptide RLP2. A * indicates experiment made by fluorescence titration only. (DOC) Click here for additional data file.

c-Src F18L (SH3 domain) [1] = biological target: T2, c-Src F18L (SH3 domain) (Gallus gallus, UniProt P00523, F86L/Q128R); assay: ITC binding of peptide RLP2 to c-Src SH3 F18L; settings: ITC, 25 °C
T2 construct: The plasmid pET15b containing the chicken c-Src-SH3 domain gene; made in house
Procedure: (§3) Differential Scanning Calorimetry (DSC) was used to evaluate the effect of the mutation on the conformational equilibrium and stability of the protein. Isothermal Titration Calorimetry (ITC) measured the binding energetics of all mutants to the RLP2 ligand at 25°C. The results for the 15 mutants studied are summarized in Figs 1D, S1 and S2, as well as S3 and S4 Tables.
as §1
(§4) Isothermal titration calorimetry was performed using a high-precision VP titration calorimetric system (Microcal Inc., Northampton, MA) as previously described. […] Titrations were made using a profile of injection volumes from 3 μL to 20 μL to define the titration curve more clearly. The heat produced by the binding reaction between the Src-SH3 domain and the peptide ligand was calculated as the difference between the heat of reaction and the corresponding heat of dilution, as obtained from independent titrations of the peptide ligand into the buffer. The resulting binding isotherms were analyzed by non-linear least-square fittings of the experimental data to a model corresponding to a single set of identical sites, as described before.
as §2

c-Src F18L (SH3 domain) [2] = assay: ITC binding of peptide RLP2 to c-Src SH3 F18L; settings: 25 °C, binding of RLP2, F18L relative to wt
Procedure: as §3, §1, §4, §2

c-Src N45S (SH3 domain) = biological target: T3, c-Src N45S (SH3 domain) (Gallus gallus, UniProt P00523, N113S); assay: ITC binding of peptide RLP2 to c-Src SH3 N45S; settings: 25 °C
T3 construct: The plasmid pET15b containing the chicken c-Src-SH3 domain gene; made in house
Procedure: as §3, §1, §4, §2

c-Src L40I (SH3 domain) = biological target: T4, c-Src L40I (SH3 domain) (Gallus gallus, UniProt P00523, L108I); assay: ITC binding of peptide RLP2 to c-Src SH3 L40I; settings: 25 °C
T4 construct: The plasmid pET15b containing the chicken c-Src-SH3 domain gene; made in house
Procedure: as §3, §1, §4, §2

c-Src wt (SH3 domain) = biological target: T5, c-Src wt (SH3 domain) (Gallus gallus, UniProt P00523, Q128R); assay: ITC binding of peptide RLP2 to c-Src SH3 wt; settings: 25 °C
T5 construct: The plasmid pET15b containing the chicken c-Src-SH3 domain gene; made in house
Procedure: as §3, §1, §4, §2

c- Src W56L (SH3 domain) = biological target: T6, c- Src W56L (SH3 domain) (Gallus gallus, UniProt P00523, Q128R/W119L); assay: ITC binding of peptide RLP2 to c-Src SH3 W56L; settings: 25 °C
T6 construct: The plasmid pET15b containing the chicken c-Src-SH3 domain gene; made in house
Procedure: as §3, §1, §4, §2

c-Src S26A (SH3 domain) = assay: ITC binding of peptide RLP2 to c-Src SH3 S26A; settings: 25 °C
Procedure: as §3, §1, §4, §2

c- Src I77V (SH3 domain) = biological target: T7, c- Src I77V (SH3 domain) (Gallus gallus, UniProt P00523, I132V); assay: ITC binding of peptide RLP2 to c-Src SH3 I77V; settings: 25 °C
T7 construct: The plasmid pET15b containing the chicken c-Src-SH3 domain gene; made in house
Procedure: as §3, §1, §4, §2

[3] = binding of RLP2, N45S relative to wt
[4] = binding of RLP2, L40I relative to wt
[5] = binding of RLP2, wt = reference
[6] = binding of RLP2, W56L relative to wt
[7] = binding of RLP2, S26A relative to wt
[8] = binding of RLP2, I77V relative to wt

Ac-RALPPLPRY-NH2 [RLP2, Ac-RALPPLPRY-NH2]
∆∆Gb (25 ºC) (c-Src L32V (SH3 domain); L32V relative to wt): 1.76 ± 0.07 kcal/mol | ∆Gb (25 ºC) (c-Src L32V (SH3 domain); binding of RLP2, L32V): -4.87 ± 0.06 kcal/mol | Kd (c-Src L32V (SH3 domain); L32V, read-out: Kd (25 ºC)): 269 ± 29 µM | ∆Gb (25 ºC) (c-Src F18L (SH3 domain) [1]; binding of RLP2, F18L): -6.64 ± 0.01 kcal/mol | ∆Hb (25 ºC) (c-Src F18L (SH3 domain) [1]; binding of RLP2, F18L): -14.5 ± 0.1 kcal/mol | Kd (c-Src F18L (SH3 domain) [1]; RLP2 about 2 mM titrated into SH3 (50-122 μM), F18L, read-out: Kd (25 ºC)): 13.5 ± 0.3 µM | ∆∆Gb (25 ºC) (c-Src F18L (SH3 domain) [2]): -0.01 ± 0.03 kcal/mol | ∆∆Hb (25 ºC) (c-Src F18L (SH3 domain) [2]): -0.3 ± 0.2 kcal/mol | ∆∆Gb (25 ºC) (c-Src N45S (SH3 domain); [3]): 0.19 ± 0.04 kcal/mol | ∆∆Hb (25 ºC) (c-Src N45S (SH3 domain); [3]): 0.1 ± 0.3 kcal/mol | ∆Gb (25 ºC) (c-Src N45S (SH3 domain); ITC, binding of RLP2, N45S): -6.44 ± 0.02 kcal/mol | ∆Hb (25 ºC) (c-Src N45S (SH3 domain); ITC, binding of RLP2, N45S): -14.1 ± 0.2 kcal/mol | Kd (c-Src N45S (SH3 domain); ITC, RLP2 about 2 mM titrated into SH3 (50-122 μM), N45S, read-out: Kd (25 ºC)): 19 ± 0.6 µM | ∆∆Gb (25 ºC) (c-Src L40I (SH3 domain); [4]): 0.24 ± 0.04 kcal/mol | ∆∆Hb (25 ºC) (c-Src L40I (SH3 domain); [4]): 0.4 ± 0.4 kcal/mol | ∆Gb (25 ºC) (c-Src L40I (SH3 domain); ITC, binding of RLP2, L40I): -6.39 ± 0.02 kcal/mol | ∆Hb (25 ºC) (c-Src L40I (SH3 domain); ITC, binding of RLP2, L40I): -13.8 ± 0.3 kcal/mol | Kd (c-Src L40I (SH3 domain); ITC, RLP2 about 2 mM titrated into SH3 (50-122 μM), L40I, read-out: Kd (25 ºC)): 20.6 ± 0.6 µM | ∆∆Gb (25 ºC) (c-Src wt (SH3 domain); [5]): 0 kcal/mol | ∆∆Hb (25 ºC) (c-Src wt (SH3 domain); [5]): 0 kcal/mol | ∆Gb (25 ºC) (c-Src wt (SH3 domain); ITC, binding of RLP2, wt): -6.63 ± 0.03 kcal/mol | ∆Hb (25 ºC) (c-Src wt (SH3 domain); ITC, binding of RLP2, wt): -14.2 ± 0.2 kcal/mol | Kd (c-Src wt (SH3 domain); ITC, RLP2 about 2 mM titrated into SH3 (50-122 μM), single set of identical sites, wt, read-out: Kd (25 ºC)): 13.8 ± 0.6 µM | ∆∆Gb (25 ºC) (c- Src W56L (SH3 domain); [6]): 0.98 ± 0.03 kcal/mol | ∆∆Hb (25 ºC) (c- Src W56L (SH3 domain); [6]): 2.4 ± 0.2 kcal/mol | ∆Gb (25 ºC) (c- Src W56L (SH3 domain); ITC, binding of RLP2, W56L): -5.65 ± 0.01 kcal/mol | ∆Hb (25 ºC) (c- Src W56L (SH3 domain); ITC, binding of RLP2, W56L): -11.8 ± 0.1 kcal/mol | Kd (c- Src W56L (SH3 domain); ITC, RLP2 about 2 mM titrated into SH3 (50-122 μM), W56L, read-out: Kd (25 ºC)): 72.5 ± 1.4 µM | ∆∆Gb (25 ºC) (c-Src S26A (SH3 domain); [7]): 0.18 ± 0.06 kcal/mol | ∆∆Hb (25 ºC) (c-Src S26A (SH3 domain); [7]): 0.4 ± 0.5 kcal/mol | ∆Gb (25 ºC) (c-Src S26A (SH3 domain); ITC, binding of RLP2, S26A): -6.45 ± 0.05 kcal/mol | ∆Hb (25 ºC) (c-Src S26A (SH3 domain); ITC, binding of RLP2, S26A): -13.8 ± 0.5 kcal/mol | Kd (c-Src S26A (SH3 domain); ITC, RLP2 about 2 mM titrated into SH3 (50-122 μM), S26A (control), read-out: Kd (25 ºC)): 18.8 ± 1.4 µM | ∆∆Gb (25 ºC) (c- Src I77V (SH3 domain); [8]): 0.31 ± 0.03 kcal/mol | ∆∆Hb (25 ºC) (c- Src I77V (SH3 domain); [8]): 0.5 ± 0.2 kcal/mol | ∆Hb (25 ºC) (c- Src I77V (SH3 domain); ITC, binding of RLP2, I77V): -13.7 ± 0.1 kcal/mol
